Read-outs that look alike come from different tables or passages of the source. Some results are limits rather than exact numbers.

What all share (type): biochemical
Test [1] concerns the target T1, recombinant human MAO-A (Homo sapiens, UniProt P21397).
T1 construct: purchased BD Biosciences (Bedford, MA, USA); host or cells: baculovirus (Autographa californica) infected insect cells (BTI-TN-5B1-4)
T1 sequence (P21397 1-527): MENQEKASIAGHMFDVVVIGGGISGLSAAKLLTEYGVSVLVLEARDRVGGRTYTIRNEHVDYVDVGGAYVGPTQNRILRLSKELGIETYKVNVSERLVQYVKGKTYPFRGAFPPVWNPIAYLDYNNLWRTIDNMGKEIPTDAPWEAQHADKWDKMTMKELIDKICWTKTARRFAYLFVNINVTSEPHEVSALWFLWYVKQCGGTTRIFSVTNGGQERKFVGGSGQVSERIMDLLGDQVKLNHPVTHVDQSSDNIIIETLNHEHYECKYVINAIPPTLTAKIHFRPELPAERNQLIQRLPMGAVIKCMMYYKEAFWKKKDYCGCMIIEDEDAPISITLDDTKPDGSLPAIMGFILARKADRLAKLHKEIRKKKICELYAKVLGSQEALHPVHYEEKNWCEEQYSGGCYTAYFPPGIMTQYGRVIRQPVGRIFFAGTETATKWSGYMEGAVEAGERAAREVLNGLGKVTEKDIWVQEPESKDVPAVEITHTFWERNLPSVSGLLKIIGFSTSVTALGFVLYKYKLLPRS
As to the kind of experiment: Fluorometric kynuramine deamination assay, MAO-A inhibition (IC50). The method, then: (§1) Pure recombinant human monoamine oxidases (MAO-A and MAO-B) enzymes overexpressed in baculovirus (Autographa californica) infected insect cells (BTI-TN-5B1-4) were purchased from BD Biosciences, (Bedford, MA, USA).
(§2) Stock solutions of the test compounds/extracts were prepared in DMSO and diluted further in 0.1 M potassium phosphate buffer (pH 7.4) to obtain the desired concentrations. MAO-A and MAO-B activities were determined by fluorometric kynuramine deamination assay set up in 384-well solid white flat-bottom plates. MAO-A and MAO-B inhibition activities (IC50 values) were determined using fixed concentration of the substrate kynuramine and varying concentrations of the test compounds or extracts. The enzyme reactions were carried out in 0.1 M potassium phosphate buffer (pH-7.4). […] The reaction mixtures with buffer/substrate/inhibitor were preincubated for 10 minutes at 37°C, followed by addition of MAO-A and MAO-B to initiate the reaction. The solid white microplates were incubated for 20 minutes at 37°C and the enzymatic reaction was stopped by addition of 28 µL of 2 N NaOH to each well. The deaminated product of kynuramine, which spontaneously cyclizes to 4-hydroxyquinoline, was measured fluorometrically at 320 nm excitation and 380 nm emission wavelengths with a plate reader (SpectraMax M5, Molecular Devices, Sunnyvale, CA, USA). The IC50 values were computed by XL-Fit® from the dose-response inhibition curves.

Test [2] deals with T2, recombinant human MAO-B (Homo sapiens, UniProt P27338).
T2 construct: purchased BD Biosciences (Bedford, MA, USA); host or cells: baculovirus (Autographa californica) infected insect cells (BTI-TN-5B1-4)
T2 sequence (P27338 1-520): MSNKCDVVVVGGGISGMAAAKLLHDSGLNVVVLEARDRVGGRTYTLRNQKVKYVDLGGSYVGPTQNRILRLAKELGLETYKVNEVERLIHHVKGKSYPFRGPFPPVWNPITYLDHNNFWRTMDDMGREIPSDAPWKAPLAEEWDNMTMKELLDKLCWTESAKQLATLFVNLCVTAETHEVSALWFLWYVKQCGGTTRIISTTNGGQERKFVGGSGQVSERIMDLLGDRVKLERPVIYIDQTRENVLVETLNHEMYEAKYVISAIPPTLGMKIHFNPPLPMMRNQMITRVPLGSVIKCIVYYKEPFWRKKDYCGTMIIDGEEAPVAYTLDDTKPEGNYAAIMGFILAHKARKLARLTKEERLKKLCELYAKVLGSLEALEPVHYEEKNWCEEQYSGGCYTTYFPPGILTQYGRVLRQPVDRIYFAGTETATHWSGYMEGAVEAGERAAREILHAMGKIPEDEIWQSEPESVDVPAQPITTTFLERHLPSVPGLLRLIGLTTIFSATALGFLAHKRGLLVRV
Briefly: Fluorometric kynuramine deamination assay, MAO-B inhibition (IC50). The following applies: for IC50: kynuramine 50 μM, mean ± SD of triplicate, read-out: Monoamine oxidase-B IC50; for Index MAO-A/B: ratio of IC50 MAO-A / IC50 MAO-B. The method, then: as §1, §2

Test [3] deals with T1, recombinant human MAO-A. Briefly: Enzyme kinetics and mechanism of inhibition of MAO-A. The following applies: Lineweaver-Burk / dialysis. How it is done:
(§3) Results are presented as double reciprocal Lineweaver-Burk plots. The kinetic data, namely, KM, Vmax, and Ki values, were calculated by SigmaPlot 12.3 with enzyme-kinetics module using Michaelis-Menten equation. The results were also analyzed for the type of inhibition.
(§4) To comprehend the type of inhibition, we examined 6 against both MAO-A and MAO-B at varying concentrations of kynuramine, a nonselective substrate. Desmethoxyyangonin 6 was tested at two concentrations: one above and the other below the IC50 value. For each experiment, three sets of assays were done at variable concentrations of the substrate: two concentrations of the inhibitor/compound and one control without inhibitors. The results are presented as double reciprocal Lineweaver-Burk plots and the kinetic data, namely, KM, Vmax, and Ki values, were computed by SigmaPlot 12.3 with enzyme-kinetics module using Michaelis-Menten equation (Table 2).

Test [4] addresses T2, recombinant human MAO-B. As to the kind of experiment: Enzyme kinetics and mechanism of inhibition of MAO-B. Particulars: for Type of Inhibition, Monoamine oxidase-B: Lineweaver-Burk / dialysis; for Selectivity / higher affinity for MAO-B than MAO-A (by Ki): from Ki values. The method, then: as §3, §4
Test [5] deals with T1, recombinant human MAO-A. Briefly: Equilibrium dialysis assay of enzyme-inhibitor complex, MAO-A. The method, then: (§5) Binding and inhibition of MAO-A and MAO-B with desmethoxyyangonin 6 were further examined by incubating the enzyme with high concentrations of the inhibitor followed by extensive dialysis of the enzyme-inhibitor complex and recovery of enzyme activities. MAO-A (0.05 mg/mL protein) was incubated with desmethoxyyangonin 6 (20 μM and 100.0 μM) and MAO-B (0.05 mg/mL protein) was incubated with desmethoxyyangonin 6 (1.50 μM and 20.0 μM) in an enzyme incubation mixture of 1 mL containing 100 mM potassium phosphate buffer (pH 7.4). Formation of enzyme-inhibitor complex was allowed by incubation of the reaction mixtures for 20 min at 37°C. The enzyme-inhibitor mixtures after incubation were chilled, transferred to the dialysis bags, and dialyzed against 25 mM potassium phosphate buffer (pH 7.4) for 14–16 hours at 4°C (changing the dialysis buffer three times). The enzyme catalytic activities were measured before and after dialysis.
(§6) The control enzymes without inhibitor were also run concurrently. […] The binding characteristics of desmethoxyyangonin 6 with MAO-A and MAO-B were examined by equilibrium dialysis to measure dissociation of the enzyme-inhibitor complex (Figure 6). MAO-A and MAO-B were incubated with high concentration of desmethoxyyangonin 6 for 20 minutes at 37°C to allow binding of inhibitor with the enzyme and formation of enzyme-inhibitor complex. The mixtures of enzyme-inhibitor complex were dialyzed overnight at 4°C against 25 mM KHPO4 (pH-7.4) buffer. The enzyme activities were examined before and after dialysis. Through overnight dialysis, the recombinant human MAO-A enzyme lost about 10–15% of activity. Incubation of MAO-A with 20.0 and 100 μM concentrations of desmethoxyyangonin 6 inhibited more than 65% of the enzyme activity (Figure 6). After the dialysis, more than 90% catalytic activity of MAO-A was recovered from enzyme-desmethoxyyangonin 6 incubation mixtures. Similarly, MAO-B lost about 10–15% of the enzyme activity during overnight dialysis.

For test [6], the target named is T2, recombinant human MAO-B. Briefly: Equilibrium dialysis assay of enzyme-inhibitor complex, MAO-B. The method, then: as §5, §6
Test [7] deals with T1, recombinant human MAO-A. Briefly: Time-dependent enzyme inhibition assay, MAO-A. The following applies: 7.50 μM, preincubation 0-15 min. The method, then: (§7) MAO-A and MAO-B enzymes were preincubated for different time periods (0–15 min) with the inhibitor. […] Controls without inhibitors were also run simultaneously. The enzyme activities were determined as described above.
as §6

For test [8], the target named is T2, recombinant human MAO-B. Briefly: Time-dependent enzyme inhibition assay, MAO-B. The following applies: 0.40 μM, preincubation 0-15 min. How it is done:
as §7, §6

Where [9] appears, read: kynuramine 80 μM, mean ± SD of triplicate, read-out: Monoamine oxidase-A IC50.
[10] abbreviates: equilibrium dialysis dissociation.

With `COc1cc(/C=C/c2ccccc2)oc(=O)c1` [Desmethoxyyangonin, 6, desmethoxyyangonin], the “MAO inhibition in words” value on recombinant human MAO-A [1] (MAO-A and MAO-B inhibition assays) was “potent MAO inhibition”. The half-inhibitory concentration (IC50) on recombinant human MAO-A [1] (setting [9]) turned out to be 1.85 ± 0.086 µM; at recombinant human MAO-B [2] it was 0.123 µM. Besides, the “Preferential inhibition of MAO-B than MAO-A (by IC50)” value at recombinant human MAO-B [2] (from IC50 values) is recorded as 15 fold. The entries for the “Type of Inhibition, Monoamine oxidase-A” value at recombinant human MAO-A [3] and at recombinant human MAO-A [3] (listed as desmethoxyyangonin 6) were “Mixed/reversible” and “mixed inhibitor”, respectively. Also, the “Type of Inhibition, Monoamine oxidase-B” value is “Competitive/reversible” on recombinant human MAO-B [4] and “competitive” on recombinant human MAO-B [4] (listed as 6). Further, the “Selectivity / higher affinity for MAO-B than MAO-A (by Ki)” value is listed as “about 30 fold” at recombinant human MAO-B [4] (listed as Compound 6) and 29 fold on recombinant human MAO-B [4] (listed as desmethoxyyangonin 6). Further, the “Inhibition of MAO-A enzyme activity before dialysis” value on recombinant human MAO-A [5] (20.0 and 100 μM, 20 min at 37°C) is recorded as “more than 65%”. The “Catalytic activity of MAO-A recovered after dialysis” value on recombinant human MAO-A [5] (20.0 and 100 μM, overnight dialysis at 4°C) is “more than 90%”. The “Reversibility of MAO-A inhibition” value at recombinant human MAO-A [5] (setting [10]) is on record as “reversible binding”. At recombinant human MAO-B [6] (1.50 and 20.0 μM, 20 min at 37°C), the “Inhibition of MAO-B enzyme activity before dialysis” value is recorded as “more than 90%”. On recombinant human MAO-B [6] (1.50 and 20.0 μM, overnight dialysis at 4°C), the “Recovery of MAO-B enzyme activity after dialysis” value is reported as “fully recovered”. Besides, at recombinant human MAO-B [6] (setting [10]), the “Reversibility of MAO-B inhibition” value is “reversible binding”. The “Time dependence of MAO-A inhibition” value at recombinant human MAO-A [7] is recorded as “not time-dependent”. Further, at recombinant human MAO-B [8], the “Time dependence of MAO-B inhibition” value is on record as “not time-dependent”.

For the compound `O[C@H](CCc1ccccc1)C[C@@H](O)CCc1ccccc1` [Yashabushidiol A, 5, 3,5-heptanediol-1,7-diphenyl], the concentration for half-maximal inhibition (IC50) was greater than 100 µM on recombinant human MAO-A [1] (setting [9]) and 35.38 ± 0.121 µM on recombinant human MAO-B [2].

In the case of `COc1cc(O)c(C(=O)/C=C/c2ccccc2)c(O)c1` [Pinostrobin chalcone, 4, 2′,6′-dihydroxy-4′-methoxychalcone], the IC50 worked out at 6.33 ± 0.206 µM at recombinant human MAO-A [1] (setting [9]) and 10 ± 3.24 µM at recombinant human MAO-B [2].

`COc1cc(O)c2c(c1)O[C@H](c1ccc(O)cc1)CC2=O` [Sakuranetin, 3, naringenin 7-methyl ether]: the IC50 on recombinant human MAO-A [1] worked out at 45.5 ± 5.71 µM; at recombinant human MAO-B [2], 36.5 ± 6.63 µM. In addition, the “Index MAO-A/B” value on recombinant human MAO-B [2] was determined as 1.246.

As to `COc1cc(O)c2c(c1)O[C@H](c1ccccc1)CC2=O` [Pinostrobin, 1, pinostrobin], the half-maximal inhibitory concentration (IC50) at recombinant human MAO-A [1] (setting [9]) was 23.9 ± 1.35 µM. Besides, at recombinant human MAO-B [2], the IC50 was found to be 45.5 ± 4.31 µM and the “Index MAO-A/B” value is reported as 0.524.

As to `COc1ccc([C@@H]2CC(=O)c3c(O)cc(OC)cc3O2)cc1` [4′-Methyl ether sakuranetin, 2, naringenin 7,4′-dimethyl ether], the figures for the IC50 on recombinant human MAO-A [1] (setting [9]) and at recombinant human MAO-B [2] were 31.4 ± 4.58 µM and greater than 100 µM, respectively.

For the origin of these results see PMC5613693, “Interactions of Desmethoxyyangonin, a Secondary Metabolite from Renealmia alpinia, with Human Monoamine Oxidase-A and Oxidase-B” (Evidence-based Complementary and Alternative Medicine : eCAM, 2017).
